Assay results published in patent US4304861A, “Process of producing antibiotic SM-173B with Streptomyces chromofuscus” (Hoffmann-La Roche Inc., priority 1977, dated 1981).
Values after ≈ are worked out from the molar mass of the structure shown.

Experiments:
Aspergillus niger = assay: Minimum Inhibitory Concentration (MIC), antibacterial spectrum; type: cell-based
Description: (§1) The antibacterial spectrum is evident from the following Table:
(§2) Minimum Inhibitory Concentration (MIC)
(§3) Test organism MIC (μg/ml)

Bacillus cereus = assay: as above; type: cell-based
Description: as §1, §2, §3

Bacillus subtilis = assay: as above; type: cell-based
Description: as §1, §2, §3

Echerichia coli = assay: as above; type: cell-based
Description: as §1, §2, §3

Micrococcus flavus = assay: as above; type: cell-based
Description: as §1, §2, §3

Mycobacterium avium = assay: as above; type: cell-based
Description: as §1, §2, §3

[1] = tested on: Mycobacterium rhodochrous; assay: as above; type: cell-based
Description: as §1, §2, §3

Mycobacterium smegmatis = assay: as above; type: cell-based; conditions: Mycolicibacterium smegmatis
Description: as §1, §2, §3

Penicillium citrinum = assay: as above; type: cell-based
Description: as §1, §2, §3

Sarcina lutea = assay: as above; type: cell-based; conditions: Micrococcus luteus
Description: as §1, §2, §3

[2] = tested on: Staphylococcus aureus 209P; assay: as above; type: cell-based
Description: as §1, §2, §3

[3] = tested on: Staphylococcus epidermidis; assay: as above; type: cell-based
Description: as §1, §2, §3

[4] = Toxicity, intraperitoneal administration to mice; conditions: mouse, in vivo, ip
Experimental: The LD50 is greater than 200 mg/kg in the case of intraperitoneal administration to mice.

Solubility = type: physicochemical
[5] = Acidity (physico-chemical properties); type: physicochemical
gram-positive bacteria = assay: Antibiotic activity (summary of MIC table); type: cell-based; conditions: a large number of gram-positive bacteria
Description: as §1, §2, §3

mycobacteria = assay: Antibiotic activity (summary of MIC table); type: cell-based
Description: as §1, §2, §3

With COC1Cc2c(cc3c(c2O)C(=O)c2c(O)cccc2C3=O)C(=O)C1(C)O (stereo not drawn) [Antibiotic SM-173B] the MIC (Aspergillus niger) was 100 µg/mL (≈ 271 µM), the MIC (Bacillus cereus) was 6.26 µg/mL (≈ 17 µM) and the MIC (Bacillus subtilis) was 6.25 µg/mL (≈ 17 µM). For the same molecule, the MIC (Echerichia coli) was 100 µg/mL (≈ 271 µM), the MIC (Micrococcus flavus) was 6.25 µg/mL (≈ 17 µM) and the MIC (Mycobacterium avium) was 6.25 µg/mL (≈ 17 µM). For the same molecule, the MIC [1] was 3.13 µg/mL (≈ 8.5 µM), the MIC (Mycobacterium smegmatis) was 3.13 µg/mL (≈ 8.5 µM) and the MIC (Penicillium citrinum) was 100 µg/mL (≈ 271 µM). It also gave an MIC (Sarcina lutea) of 12.5 µg/mL (≈ 33.9 µM), an MIC [2] of 6.25 µg/mL (≈ 17 µM) and an MIC [3] of 3.13 µg/mL (≈ 8.5 µM). The LD50 [4] was > 200 mg/kg, the Solubility (Solubility; in methanol, ethanol, butanol, acetone, chloroform, ethyl acetate) was “Soluble” and the Solubility (Solubility; in n-hexane) was “poorly soluble”. The Solubility (Solubility; in petroleum ether) was “insoluble”, the Solubility (Solubility; in water) was “insoluble” and the Solubility (Solubility; in water under alkaline conditions) was “Soluble”. The acidity [5] was “weakly acid”, the antibiotic activity (gram-positive bacteria) was “antibiotically active” and the antibiotic activity (mycobacteria) was “antibiotically active”.
